# Assays:
# various tumor cell lines = test: Present method: tumor cells in implanted encapsulation device, response to antitumor agents; assay type: in vivo
# Excerpt: The present method can be utilized as a first line screen to test potential drug candidates for in vivo efficacy.
# p21^WAF1/Clp1 promoter = test: Hollow fiber p21^WAF1/Clp1 promoter-luciferase reporter assay: light emission from Fibers with H1299C2 cells retrieved from dosed mice; assay type: in vivo, mouse (mouse (human H1299C2 cells in hollow fibers) H1299C2 cells in hollow fibers); conditions: H1299C2 cells in hollow fibers implanted s.c. in athymic nude mice; single intravenous dose 50, 25 or 12.5 mg/kg; Fibers retrieved 24 hours after dosing; p<0.01, one tailed Student t-test
# Method: A human lung cancer cell line, H1299, is obtained from the American Type Culture Collection, ATCC, Rockville, Md.) and cultured in the RPMI 1640 medium supplemented with 10% heat-inactivated Fetal Bovine Serum (Life Technologies, Grand Island, N.Y.). Cells harvested at approx. 85% confluency are washed with ice cold phosphate buffered saline (PBS) and suspended in the ice cold PBS at a concentration of 2×10^7 cells/mL. One half of one mL of the cell suspension is used for transfection with 10 μg of p21^WAF1/Clp1 luciferase plasmid and NeotetR selectable marker. Transfection is performed by electroporation at […]. Cells are then plated in the above medium containing 0.4 mg/mL G-418 (Life Technologies, Grand Island, N.Y.). One colony is selected, diluted to one cell/well and a single clone is expanded to generate p21^WAF1/Clp1 promoter-luciferase stable cell line designated H1299C2. The cell line tests negative for Mycoplasma contamination (Rapid Detection System by Gen-Probe, Inc., San Diego, Calif.) and for Mouse Antibody Production (MA BioServices, Inc., Rockville, Md.).
# The H1299C2 cell line is propagated and expanded for implantation in RPMI 1640 medium containing 10% heat-inactivated Fetal Bovine Serum (Life Technologies, Grand Island, N.Y.) in a cell culture incubator, at 37° C. with humidified atmosphere, containing 5% CO2. […]
SMILES,activity when tested on various tumor cell lines with the present method (various tumor cell lines),expression of the reporter gene (firefly luciferase) in vivo as judged by registered light emission from the Fibers (p21^WAF1/Clp1 promoter)
O=c1[nH]cc(F)c(=O)[nH]1 [5-fluorouracil],significant activity,
CC[C@@]1(O)C(=O)OCc2c1cc1n(c2=O)Cc2cc3ccccc3nc2-1 [camptothecin],significant activity,
N.N.[Cl][Pt][Cl] [cis-platinum],significant activity,
"O=C(/C=C/c1ccc(CN(CCO)CCc2c[nH]c3ccccc23)cc1)NO [compound 1, N-hydroxy-3-[4-[[(2-hydroxyethyl)[2-(1H-indol-3-yl)-ethyl]-amino]methyl]phenyl]-2E-2-propenamide]",,"statistically significant (p<0.01, one tailed Student t-test) and reproducible expression of the reporter gene"
"Cc1[nH]c2ccccc2c1CCNCc1ccc(/C=C/C(=O)NO)cc1 [compound 2, N-hydroxy-3-[4-[[[2-(2-methyl-1H-indol-3-yl)-ethyl]-amino]methyl]phenyl]-2E-2-propenamide]",,"statistically significant (p<0.01, one tailed Student t-test) and reproducible expression of the reporter gene"
COc1cccc2c1C(=O)c1c(O)c3c(c(O)c1C2=O)C[C@@](O)(C(=O)CO)C[C@@H]3O[C@H]1C[C@H](N)[C@H](O)[C@H](C)O1 [doxorubicin],significant activity,
COc1cc([C@@H]2c3cc4c(cc3[C@@H](O[C@@H]3O[C@@H]5CO[C@@H](C)O[C@H]5[C@H](O)[C@H]3O)[C@H]3COC(=O)[C@H]23)OCO4)cc(OC)c1O [etoposide],significant activity,
CO[C@@]12[C@H](COC(N)=O)C3=C(C(=O)C(C)=C(N)C3=O)N1C[C@@H]1N[C@@H]12 [mitomycin C],significant activity,
O=C1c2c(O)ccc(O)c2C(=O)c2c(NCCNCCO)ccc(NCCNCCO)c21 [mitoxantrone],significant activity,
CC(=O)O[C@H]1C(=O)[C@@]2(C)[C@H]([C@H](OC(=O)c3ccccc3)[C@]3(O)C[C@H](OC(=O)[C@H](O)[C@@H](NC(=O)c4ccccc4)c4ccccc4)C(C)=C1C3(C)C)[C@]1(OC(C)=O)CO[C@@H]1C[C@@H]2O [paclitaxel],significant activity,
CC[C@]1(O)C[C@H]2CN(CCc3c([nH]c4ccccc34)[C@@](C(=O)OC)(c3cc4c(cc3OC)N(C=O)[C@H]3[C@@](O)(C(=O)OC)[C@H](OC(C)=O)[C@]5(CC)C=CCN6CC[C@]43[C@@H]65)C2)C1 [vincristine],significant activity,

# Source: patent publication US20040067540A1, “Rapid method for screening compounds for in vivo activity” (priority 2003, published 2004)
